From patent publication US11021529B2, “Antimicrobial constructs and uses thereof” (priority 2017, dated 2021) come the findings set out here.

In brackets after ≈: the same amount, converted by molar mass. Where two headings read alike, the source gives them in different places.

Common to all, as to type: cell-based
For assay [1], the system named is P. aeruginosa strain PA14. As to the kind of experiment: MIC in wild-type P. aeruginosa strain PA14 (Table 3). Particulars: Pseudomonas aeruginosa.
For assay [2], the system named is P. aeruginosa strain PA01. The assay can be described thus: MIC in wild-type P. aeruginosa strain PA01 (Table 3). Particulars: Pseudomonas aeruginosa.
The subject of the next assay is P. aeruginosa strain Z61. As to the kind of experiment: MIC in hyperpermeable P. aeruginosa strain Z61 (Table 3). The settings on record: Pseudomonas aeruginosa.
The subject of assay [3] is P. aeruginosa. As to the kind of experiment: Checkerboard assays (fractional inhibitory concentration indices) with WLBU2 potentiator. Particulars: drug combined with WLBU2 potentiator (W2-grafted dextran).
From the text: In some embodiments, checkerboard assays can be used to determine if two antimicrobial agents have synergy, additive, or antagonistic effects when dosed together. Checkboard assays determine the interaction and potency of two test articles when used concurrently. Using Lorian methodology, the effect on potency of the combination of antimicrobials in comparison to their individual activities, represented as the Fractional Inhibitory Concentration (FIC) index value. To quantify the interactions between the antimicrobials being tested, the FIC index (the combination of antimicrobials that produced the greatest change from the individual antimicrobial's MIC) value is calculated for each strain and antimicrobial combination: (A/MICA)+(B/MICB)=FICA+FICB=FIC Index, where A and B are the MIC of each antimicrobial in combination (in a single well), and MICA and MICB are the MIC of each antimicrobial individually.
In assay [4] the test system is P. aeruginosa. As to the kind of experiment: Super-resolution microscopy of membrane association and permeabilization. The settings on record: fluorescently labeled peptide or potentiator. The text has this:
In order to identify peptides which would improve the penetration of small molecules into bacteria library of 30 peptide-linezolid conjugates was synthesized using antimicrobial peptides curated from literature. Linezolid is a small molecule that is normally unable to kill gram-negative bacteria due to its inability to cross the membrane. The peptide-linezolid library was screened in a growth inhibition assay in P. aeruginosa. […] WLBU2 is part of a family of helical cationic peptides that were designed to specifically kill P. aeruginosa. Other members of this peptide family, WLBU1 and LBU2, were synthesized in tandem with P. aeruginosa targeting peptides (P9b and EKR) and conjugated to linezolid. These peptide-drug conjugates were evaluated for their ability to inhibit P. aeruginosa and cross validated for mammalian cell toxicity.
To visualize membrane permeabilization of WLBU2, P. aeruginosa was incubated with Alexa Fluor 488-labeld WLBU2 potentiator for 15 minutes and subsequently washed 2 times with phosphate buffer solution to remove unbound potentiator. Bacteria were then stained with a membrane dye.

Assay [5] has as its system P. aeruginosa strain PA01. As to the kind of experiment: Growth (MIC) assay in P. aeruginosa strain PA01. The settings on record: peptide concentration range 0-5 μM. As for the experimental part: The minimal inhibitory concentrations (MIC) were measured in P. aeruginosa and cell viability in mammalian cells at a peptide concentration range between 0-5 μM. Toxicity was evaluated in NIH 3T3 mouse fibroblasts and Neuro-2a neuroblastoma. To negatively select against tandem peptides that may cause red blood lysis when administered in animals, the peptides were also screened in a hemolysis assay. In the range of concentrations tested, no membrane-active peptide had inhibitory activity against bacteria when not in tandem with dKK (FIG. 2), supporting the rationale of the tandem peptide architecture. At these concentrations, dKK alone also had no activity against P. aeruginosa (FIG. 2). Since it is advantageous to identify antibacterial agents which have narrow-spectrum activity, antibacterial efficacy against other gram-negative bacterial species (E. coli) and a gram-positive bacterial species (S. aureus; FIG. 1B) was also assessed. The best performing tandem peptide was lactoferrin-dKK (LACT-dKK). Lactoferrin peptide ([…], SEQ ID NO: 1) is from a protein in the transferrin family with known membrane interactions with bacteria. […]
For each experiment, P. aeruginosa strain PA01 was started from a frozen glycerol stock and cultured overnight. […] The number of colony forming units (CFU) per mL was determined by titering cultures with known absorbance values. […]

The term MIC denotes the lowest concentration that inhibits growth of the organism.

For `CC(=O)NC[C@H]1CN(c2ccc(N3CCOCC3)c(F)c2)C(=O)O1` [Linezolid], the MIC was > 128 µg/mL in assay [1] (PA14), > 128 µg/mL in assay [2] (PA01) and 8 µg/mL (≈ 23.7 µM) with P. aeruginosa strain Z61.
Consider `C=C[C@]1(C)C[C@@H](OC(=O)CS[C@@H]2C[C@H]3CC[C@@H](C2)N3C)[C@]2(C)[C@H](C)CC[C@]3(CCC(=O)[C@H]32)[C@@H](C)[C@@H]1O` [retapamulin], for which the “fractional inhibitory concentration indices (FICIs), interaction with WLBU2 potentiator” value in the assay on P. aeruginosa [3] is on record as “synergy”.
For `CO[C@@H]1[C@@H](OC(N)=O)[C@@H](O)[C@H](Oc2ccc3c(O)c(NC(=O)c4ccc(O)c(CC=C(C)C)c4)c(=O)oc3c2C)OC1(C)C` [novobiocin], the “fractional inhibitory concentration indices (FICIs), interaction with WLBU2 potentiator” value in the assay on P. aeruginosa [3] is “synergy”.
For the compound “RRWVRRVRRWVRRVVRVVRRWVRR (Synthetic WLBU2)”, in the assay with P. aeruginosa [4], the “localization in P. aeruginosa (super-resolution microscopy)” value is “able to associate with the membrane and localize to the cytosol”.
Consider `O=C(O)c1cn(C2CC2)c2cc(N3CCNCC3)c(F)cc2c1=O` [Ciprofloxacin], for which the minimal inhibitory concentration (MIC) in assay [1] (P. aeruginosa strain PA14, read-out: MIC) was 0.5 µg/mL (≈ 1.51 µM); in assay [2] (P. aeruginosa strain PA01, read-out: MIC), 2 µg/mL (≈ 6.04 µM); with P. aeruginosa strain Z61, < 0.25 µg/mL.
Consider “D(KLAKLAK)2 (KLAKLAKKLAKLAK; D-amino acids; Synthetic - antimicrobial peptide comprised of D-amino acids) [dKK]”, for which the “inhibitory activity against bacteria / P. aeruginosa” value in assay [5] is listed as “no activity”.
